This passage reports AC50 results from patent US11970497B2, “Tricyclic AKR1C3 dependent KARS inhibitors” (Novartis AG, priority 2019, dated 2024).

What all share (assay): Expanded lung cancer cell line proliferation assay
Holding throughout (assay type): cell-based

One assay relates to COLO-699. The following applies: COLO-699, 72 h, average of PrestoBlue and Cell Titer Glo; AKR1C3 expression: no data available; read-out: Absolute Qualified AC50. An excerpt:
(§1) Cellular Proliferation Assay to Assess Compound Activity in an Expanded Panel of 57 NRF2 Pathway Mutant and Wild Type Lung Cancer Cell Lines.
(§2) Both the PrestoBlue Cell Viability Reagent and Cell Titer Glo were multiplexed together as the final assay readout. PrestoBlue is a cell permeable resazurin-based solution that utilizes the reducing power of living cells to quantitatively measure their proliferation. Cell Titer Glo measures the amount of ATP present, an indicator of metabolically active cells.
(§3) Expanded Lung Cancer Cell Line Proliferation Assay Outline, Analysis and Profiling Results
(§4) Cells were seeded into 384 well assay plates (Greiner Bio-One, Catalog #781080) using the Thermo Scientific Matrix WellMate microplate dispenser and Thermo Scientific Matrix WellMate small bore disposable tubing cartridges (Catalog #201-30002) in 30 μl of growth media (RPMI-1640 supplemented with 10% fetal bovine serum and 1% penicillin/streptomycin) per well (1000 to 2000 cells/well depending on doubling time). Following cell plating, assay plates were placed into tissue culture incubator at 37° C./5% CO2 overnight. The next day one assay plate for each cell line was used for a Day 0 Cell Titer Glo and PrestoBlue readout. 3 μl of PrestoBlue Cell Viability Reagent (Thermo Scientific, Catalog #A13262) was added to each well and then assay plates were incubated at 37° C./5% CO2 for 30 minutes prior to fluorescence readout on the EnVision 2105 multimode plate reader (Perkin Elmer). Following the PrestoBlue readout 18 μl of Cell Titer Glo (Promega, Catalog #G7572) was then added to each well, allowing plates to incubate at room temperature for 10 minutes prior to luminescence readout on the EnVision. Compound was then added to the remaining assay plates (each cell line run in triplicates) using the Labcyte Inc Echo 555 acoustic liquid handler. Compounds were arrayed into a Labcyte Inc Echo qualified 384 well LDV microplate (Cat #LP-0200-GNF10). Compounds were serially diluted 1:3.16 to generate an 8 point dose response for a final top concentration of 1 μM. DMSO (0.3%) was used as the neutral control (NC) and MG132 (30 μM) was used as the active control (AC). 90 nl of compounds were added to 30 μl of cells using the Labcyte Inc Echo 555 acoustic liquid handler for a final DMSO assay concentration of 0.3%. Following compound addition, assay plates were spun down in a tabletop centrifuge at 500 rpm for 1 minute and then placed into tissue culture incubator at 37° C./5% CO2 for 72 h. Following the 72 h incubation, all assay plates were readout using PrestoBlue and Cell Titer Glo using the same conditions previously described for the Day 0 readout. The Day 0 readout (untreated cells) was used to compare to the 72 h DMSO treated samples on each assay plate as a way of tracking each cell line's fold growth. NC1 control based normalization was used for data analysis in Helios, which incorporates the DMSO neutral control (NC) and MG132 active control (AC) for generating dose response curves that are then used to calculate the Absolute Qualified AC50 calls for each compound and cell line.
(§5) NC1 normalization calculation model: NC1: xn=±(x−NC)/(AC−NC)
(§6) +/− is set by the inhibition type parameter setting where NC and AC are averages (mean or median) over the corresponding NC and AC well values. The Qualified Absolute AC50 values for Compound 36 and Compound 40 are listed in the table below and are represented as the average activity in both the PrestoBlue and Cell Titer Glo assay readouts.
(§7) Absolute Qualified AC50 Values Listed Below are a Representation of Each Compounds' Average Activity in Both the PrestoBlue and Cell Titer Glo Assay Readouts.
Background: In ATP-based viability assays light output follows the ATP content of the culture.

For another assay, the system named is HCC78. The following applies: Homo sapiens; HCC78, 72 h, average of PrestoBlue and Cell Titer Glo; AKR1C3 3 TPM; read-out: Absolute Qualified AC50.
Source text: as §1, §2, §3, §4, §5, §6, §7

The test system of a further assay is A549. The note with it: Homo sapiens; A549, 72 h, average of PrestoBlue and Cell Titer Glo; AKR1C3 3017.9 TPM; read-out: Absolute Qualified AC50.
Source text: as §1, §2, §3, §4, §5, §6, §7

Another assay concerns NCI-H1299. The following applies: Homo sapiens; NCI-H1299, 72 h, average of PrestoBlue and Cell Titer Glo; AKR1C3 1.3 TPM; read-out: Absolute Qualified AC50.
Source text: as §1, §2, §3, §4, §5, §6, §7

In another assay the test system is HCC-44. The following applies: Homo sapiens, HCC44; HCC-44, 72 h, average of PrestoBlue and Cell Titer Glo; AKR1C3 134.3 TPM; read-out: Absolute Qualified AC50.
Source text: as §1, §2, §3, §4, §5, §6, §7

For the next assay, the system named is CORL-279. The following applies: Homo sapiens, COR-L279; CORL-279, 72 h, average of PrestoBlue and Cell Titer Glo; AKR1C3 3.6 TPM; read-out: Absolute Qualified AC50.
Source text: as §1, §2, §3, §4, §5, §6, §7

For another assay, the system named is HCC2108. The note with it: HCC2108, 72 h, average of PrestoBlue and Cell Titer Glo; AKR1C3 0.5 TPM; read-out: Absolute Qualified AC50.
Source text: as §1, §2, §3, §4, §5, §6, §7

A further assay deals with NCI-H1437. The following applies: Homo sapiens; NCI-H1437, 72 h, average of PrestoBlue and Cell Titer Glo; AKR1C3 2720.8 TPM; read-out: Absolute Qualified AC50.
Source text: as §1, §2, §3, §4, §5, §6, §7

The next assay deals with HCC95. The following applies: Homo sapiens; HCC95, 72 h, average of PrestoBlue and Cell Titer Glo; AKR1C3 939.1 TPM; read-out: Absolute Qualified AC50.
Source text: as §1, §2, §3, §4, §5, §6, §7

For another assay, the system named is NCI-H226. The following applies: Homo sapiens; NCI-H226, 72 h, average of PrestoBlue and Cell Titer Glo; AKR1C3 2.9 TPM; read-out: Absolute Qualified AC50.
Source text: as §1, §2, §3, §4, §5, §6, §7

The subject of the next assay is NCI-H1650. The note with it: Homo sapiens; NCI-H1650, 72 h, average of PrestoBlue and Cell Titer Glo; AKR1C3 1.3 TPM; read-out: Absolute Qualified AC50.
Source text: as §1, §2, §3, §4, §5, §6, §7

For another assay, the system named is NCI-H1944. The following applies: Homo sapiens; NCI-H1944, 72 h, average of PrestoBlue and Cell Titer Glo; AKR1C3 3164.3 TPM; read-out: Absolute Qualified AC50.
Source text: as §1, §2, §3, §4, §5, §6, §7

The subject of a further assay is NCI-H810. The following applies: Homo sapiens; NCI-H810, 72 h, average of PrestoBlue and Cell Titer Glo; AKR1C3 52.5 TPM; read-out: Absolute Qualified AC50.
Source text: as §1, §2, §3, §4, §5, §6, §7

For another assay, the system named is NCI-H1373. The following applies: Homo sapiens; NCI-H1373, 72 h, average of PrestoBlue and Cell Titer Glo; AKR1C3 8 TPM; read-out: Absolute Qualified AC50.
Source text: as §1, §2, §3, §4, §5, §6, §7

Broadly, the AC50 is the midpoint of the concentration-response curve, whichever way the signal moves. As for `CN1c2ccc(F)cc2C(=O)CC12CCN(C(=O)NCc1ccc(F)c(NCCO)c1)CC2` [Example 36, 6′-fluoro-N-(4-fluoro-3-((2-hydroxyethyl)amino)benzyl)-1′-methyl-4′-oxo-3′,4′-dihydro-1′H-spiro[piperidine-4,2′-quinoline]-1-carboxamide], the AC50 with COLO-699 was greater than 1000 nM; in the assay with HCC78, greater than 1000 nM; in the assay on A549, 301 nM; in the assay on NCI-H1299, greater than 1000 nM; with HCC-44, 705 nM; with CORL-279, greater than 1000 nM. Also, the half-maximal activity concentration (AC50) in the assay with HCC2108 is greater than 1000 nM; with NCI-H1437, 257 nM; in the assay with HCC95, 287 nM; in the assay on NCI-H226, greater than 1000 nM; with NCI-H1650, greater than 1000 nM; in the assay with NCI-H1944 it was 275 nM. In addition, the AC50 with NCI-H810 and in the assay with NCI-H1373 was greater than 1000 nM in each case.

For the compound `O=C1CC2(CCN(C(=O)NCc3ccc(F)cc3)CC2)Nc2ccc(F)cc21` [Example 40], the half-maximal activity concentration (AC50) with COLO-699 is greater than 1000 nM; in the assay with HCC78, greater than 1000 nM; in the assay on A549, 56 nM; in the assay on NCI-H1299, greater than 1000 nM; with HCC-44, 440 nM; in the assay on CORL-279 it was greater than 1000 nM. Further, the AC50 in the assay on HCC2108 is greater than 1000 nM; in the assay on NCI-H1437, 68 nM; in the assay on HCC95, 69 nM; in the assay with NCI-H226 it was greater than 1000 nM; in the assay with NCI-H1650, greater than 1000 nM; in the assay with NCI-H1944, 52 nM. Besides, the figures for the AC50 with NCI-H810 and in the assay with NCI-H1373 were 983 nM and greater than 1000 nM, respectively.
